Measured values as given in US11712438B2, “Phenyl derivatives as PGE2 receptor modulators” (IDORSIA PHARMACEUTICALS LTD, priority 2017, dated 2023).

Assays:
Assay in all cases: cell-based
[1] = target: EP2 (Homo sapiens, UniProt P43116);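 also: SF295 glioblastoma cells with endogenous EP2 only, PGE2-stimulated cAMP accumulation read by HTRF competitive immunoassay, 45 min pre-incubation then 30 min at room temperature, IBMX in buffer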
[2] = target: EP4 (Homo sapiens, UniProt P35408);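 also: inhibition of PGE2-evoked (6 nM) cAMP accumulation in BT549 breast cancer cells endogenously expressing EP4, cAMP read by HTRF competitive immunoassay after 30 min at room temperature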
[3] = target: PTRGER4 (EP4) (Homo sapiens, UniProt P35408);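 also: assay plate preincubated 15 min at 37 °C, after which PGE2 was added at 20 nM final and incubation continued 120 min at 37 °C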
[4] = target: PTGER2 (EP2) (Homo sapiens, UniProt P43116)
Sequence of PTGER2 (EP2) (P43116 whole entry): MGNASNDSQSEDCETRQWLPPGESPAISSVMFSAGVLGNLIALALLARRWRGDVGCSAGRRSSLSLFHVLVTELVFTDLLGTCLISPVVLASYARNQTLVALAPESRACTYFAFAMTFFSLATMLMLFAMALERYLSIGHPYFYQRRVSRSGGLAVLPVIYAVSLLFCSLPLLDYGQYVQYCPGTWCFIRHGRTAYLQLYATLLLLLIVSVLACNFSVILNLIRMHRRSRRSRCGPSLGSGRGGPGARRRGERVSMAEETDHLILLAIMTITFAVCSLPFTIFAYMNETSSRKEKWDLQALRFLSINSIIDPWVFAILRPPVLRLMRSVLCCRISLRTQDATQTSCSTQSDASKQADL
Description: The assay is using the PathHunter™ HEK 293 PTGER2 and PTGER4 b-arrestin cell lines from DiscoverX. The system is based on the Enzyme Fragment Complementation Technology. Two complementing fragments of the b-galactosidase enzyme are expressed within stably transfected cells. The larger portion of b-gal, termed EA for Enzyme Acceptor, is fused to the C-terminus of b-arrestin 2. The smaller fragment, termed ProLink™ tag, is fused to PTGER2 (EP2) or PTRGER4 (EP4) at the C-terminus. Upon activation, b-arrestin is recruited which forces the interaction of ProLink and EA, allowing complementation of the two fragments of b-gal and the formation of a functional enzyme which is capable of hydrolysing the substrate and generating a chemiluminescent signal.
The HEK 293 PTGER2 b-arrestin cells (DiscoverX 93-021-4C1) are detached from culture dishes with a cell dissociation buffer (Invitrogen, 13151-014), and collected in growing medium (GM: DMEM+Glutamax-I (Invitrogen 32430)/10% FCS, 1% Penicilin/streptomycin). 5000 cells per well of a 384 well plate (white with white bottom Greiner 781080) are seeded in 20 ul per well of GM. Plate is incubated at 37° C., 5% CO2 for 24 hours.
Stock solutions of test compounds are made at a concentration of 10 mM in DMSO, and serially diluted in DMSO to concentrations required for inhibition dose response curves (tested concentration range 10 μM-2 nM or 1 μM-0.2 nM).
PGE2 (Cayman 14010, stock solution: 10 mM in DMSO) is used as agonist at 5 μM final concentration, corresponding to EC80.
Five microliters of diluted compounds are transferred into the assay plate. Plate is pre-incubated 15 minutes at 37° C. Then five microliters of PGE2 (final conc. 5 μM) are transferred into the assay plate. Plate is incubated 120 minutes at 37° C.
Twelve μl of reagent are transferred to the assay plate and incubate for 1 hour at room temperature in the dark. Luminescence counts are read on a BMG Fluostar Optima reader according to manufacturer's instructions.
For each compound concentration calculate of the percentage of activity compared to DMSO control value as average±STDEV. (each concentration is measured in duplicate)
When compounds were measured multiple times, mean values are given.

Sequence of EP2 (P43116 whole entry): as above
Sequence of EP4 (P35408 whole entry): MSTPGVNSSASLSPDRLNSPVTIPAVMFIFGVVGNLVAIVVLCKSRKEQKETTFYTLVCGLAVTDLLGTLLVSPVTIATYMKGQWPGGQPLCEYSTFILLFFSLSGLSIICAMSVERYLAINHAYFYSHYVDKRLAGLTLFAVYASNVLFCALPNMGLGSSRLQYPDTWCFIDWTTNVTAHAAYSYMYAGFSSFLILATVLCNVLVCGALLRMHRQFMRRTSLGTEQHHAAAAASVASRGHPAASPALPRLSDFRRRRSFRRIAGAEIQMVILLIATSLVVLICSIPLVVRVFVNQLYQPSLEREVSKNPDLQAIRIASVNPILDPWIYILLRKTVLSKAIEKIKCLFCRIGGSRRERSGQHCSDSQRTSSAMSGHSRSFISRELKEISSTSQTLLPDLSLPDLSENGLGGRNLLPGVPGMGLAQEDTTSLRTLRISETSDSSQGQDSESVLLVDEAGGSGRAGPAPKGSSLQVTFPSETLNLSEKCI
Sequence of PTRGER4 (EP4) (P35408 whole entry): as above

Row | SMILES | IC50 [1] | IC50 [2] | IC50 [3] | IC50 [4]
1 | Cn1[nH]c(=O)c2ccc(-c3cc(NCCc4ccc(Br)cc4)ncn3)cc21 [Example 9, 6-{6-[2-(4-Bromo-phenyl)-ethylamino]-pyrimidin-4-yl}-1-methyl-1,2-dihydro-indazol-3-one] | 642 nM | 1080 nM |  | 
2 | CCOc1cc(-c2cc(NCCc3ccc(O)cc3)ncn2)sc1C(=O)O [Example 69, 3-Ethoxy-5-{6-[2-(4-hydroxy-phenyl)-ethylamino]-pyrimidin-4-yl}-thiophene-2-carboxylic acid] | 382 nM | 170 nM | 915 nM | 
3 | CCOc1cc(-c2cc(NCCc3cccc(Cl)c3)ncn2)sc1C(=O)O [Example 77, 5-{6-[2-(3-Chloro-phenyl)-ethylamino]-pyrimidin-4-yl}-3-ethoxy-thiophene-2-carboxylic acid] | 415 nM | 108 nM | 121 nM | 
4 | NC(=O)c1sc(-c2cc(NCCc3c(F)cc(Br)cc3F)ncn2)cc1C(F)(F)F [Example 134, 5-{6-[2-(4-Bromo-2,6-difluoro-phenyl)-ethylamino]-pyrimidin-4-yl}-3-trifluoromethyl-thiophene-2-carboxylic acid amide] | 284 nM | 718 nM | 98 nM | 
5 | O=C(O)c1sc(-c2cc(NCCc3ccc(C(F)(F)F)cc3)ncn2)cc1F [Example 22, 3-Fluoro-5-{6-[2-(4-trifluoromethyl-phenyl)-ethylamino]-pyrimidin-4-yl}-thiophene-2-carboxylic acid] | 759 nM | 68 nM | 187 nM | 
6 | CCOc1cc(-c2cc(NCCc3ccc(Br)cc3)ncn2)sc1-c1noc(NCCO)n1 [Example 141, 2-[3-(5-{6-[2-(4-Bromo-phenyl)-ethylamino]-pyrimidin-4-yl}-3-ethoxy-thiophen-2-yl)-[1,2,4]oxadiazol-5-ylamino]-ethanol] | 381 nM | 168 nM | 8 nM | 
7 | CC(C(=O)O)c1ccc(-c2cc(NCCc3ccc(Br)cc3)ncn2)s1 (racemic) [Example 159, rac-2-(5-{6-[2-(4-Bromo-phenyl)-ethylamino]-pyrimidin-4-yl}-thiophen-2-yl)-propionic acid] | 392 nM | 602 nM |  | 
8 | O=C(O)c1sc(-c2cc(NCCc3c(F)cc(Br)cc3F)ncn2)cc1OCCO [Example 32, 5-{6-[2-(4-Bromo-2,6-difluoro-phenyl)-ethylamino]-pyrimidin-4-yl}-3-(2-hydroxy-ethoxy)-thiophene-2-carboxylic acid] | 55 nM | 30 nM |  | 
9 | CCOc1cc(-c2cc(NCCc3ccc(Br)cc3N(C)C)ncn2)sc1-c1noc(=O)[nH]1 [Example 109, 3-(5-{6-[2-(4-Bromo-2-dimethylamino-phenyl)-ethylamino]-pyrimidin-4-yl}-3-ethoxy-thiophen-2yl)-[1,2,4]oxadiazol-5(4H)-one] | 558 nM | 254 nM |  | 
10 | CCOc1cc(-c2cc(NCCc3ccc(Br)cc3)ncn2)sc1-c1noc(C2COC2)n1 [Example 142, [2-(4-Bromo-phenyl)-ethyl]-{6-[4-ethoxy-5-(5-oxetan-3-yl-[1,2,4]oxadiazol-3-yl)-thiophen-2-yl]-pyrimidin-4-yl}-amine] | 700 nM | 571 nM |  | 
11 | CCOc1cc(-c2cc(NCCc3ccc(Br)cc3)ncn2)sc1-c1noc(CO)n1 [Example 143, [3-(5-{6-[2-(4-Bromo-phenyl)-ethylamino]-pyrimidin-4-yl}-3-ethoxy-thiophen-2-yl)-[1,2,4]oxadiazol-5-yl]-methanol] | 604 nM | 344 nM |  | 
12 | O=c1[nH]c(-c2cccc(-c3cc(NCCc4ccc(Br)cc4)ncn3)c2)no1 [Example 147, 3-(3-{6-[2-(4-Bromo-phenyl)-ethylamino]-pyrimidin-4-yl}-phenyl)-[1,2,4]oxadiazol-5(4H)-one] | 490 nM | 834 nM |  | 
13 | CCOc1cc(-c2cc(NCCc3ccc(F)cc3)ncn2)sc1C(=O)O [Example 80, 3-Ethoxy-5-{6-[2-(4-fluoro-phenyl)-ethylamino]-pyrimidin-4-yl}-thiophene-2-carboxylic acid] | 255 nM | 366 nM |  | 
14 | COc1cc(-c2cc(NCCc3ccc(Br)cc3)ncn2)ccc1O [Example 10, 4-{6-[2-(4-Bromo-phenyl)-ethylamino]-pyrimidin-4-yl}-2-methoxy-phenol] | 931 nM | 798 nM |  | 
15 | CCOc1cc(-c2cc(NCCc3cc(C)c(C)cc3OC)ncn2)sc1C(=O)O [Example 5, 3-Ethoxy-5-{6-[2-(2-methoxy-4,5-dimethyl-phenyl)-ethylamino]-pyrimidin-4-yl}-thiophene-2-carboxylic acid] | 45 nM | 6 nM |  | 
16 | O=c1[nH]c(-c2ccc(-c3cc(NCCc4ccc(Br)cc4)ncn3)cc2)no1 [Example 14, 3-(4-{6-[2-(4-Bromo-phenyl)-ethylamino]-pyrimidin-4-yl}-phenyl)-[1,2,4]oxadiazol-5(4H)-one] | 257 nM | 262 nM |  | 
17 | COc1cc(-c2cc(NCCc3ccc(Br)cc3)ncn2)ccc1OCCO [Example 16, 2-(4-{6-[2-(4-Bromo-phenyl)-ethylamino]-pyrimidin-4-yl}-2-methoxy-phenoxy)-ethanol] | 795 nM | 914 nM |  | 

Row | SMILES | IC50 [1] | IC50 [2] | IC50 [3] | IC50 [4]
18 | CCOc1cc(-c2cc(NCCc3ccc(Br)cc3)ncn2)sc1C(C)O (stereo not shown) [Example 145, 1-(5-{6-[2-(4-Bromo-phenyl)-ethylamino]-pyrimidin-4-yl}-3-ethoxy-thiophen-2-yl)-ethanol] | 1120 nM | 690 nM |  | 
19 | COc1cc(SC)ccc1CCNc1cc(-c2ccc(C(=O)O)c(OC3CCC3)c2)ncn1 [Example 8, 2-Cyclobutoxy-4-{6-[2-(2-methoxy-4-methylsulfanyl-phenyl)-ethylamino]-pyrimidin-4-yl}-benzoic acid] | 340 nM | 262 nM |  | 
20 | CCOc1cc(-c2cc(NCCc3ccc(SC)cc3OC)ncn2)sc1C(=O)O [Example 4, 3-Ethoxy-5-{6-[2-(2-methoxy-4-methylsulfanyl-phenyl)-ethylamino]-pyrimidin-4-yl}-thiophene-2-carboxylic acid] | 38 nM | 5 nM |  | 
21 | Oc1c(F)cc(-c2cc(NCCc3ccc(Br)cc3)ncn2)cc1F [Example 12, 4-{6-[2-(4-Bromo-phenyl)-ethylamino]-pyrimidin-4-yl}-2,6-difluoro-phenol] | 885 nM | 617 nM |  | 
22 | CCOc1cc(-c2cc(NCCc3ccc(OC(F)F)cc3OC)ncn2)ccc1C(=O)O [Example 220, 4-{6-[2-(4-Difluoromethoxy-2-methoxy-phenyl)-ethylamino]-pyrimidin-4-yl}-2-ethoxy-benzoic acid] |  |  | 839 nM | 401 nM
23 | COc1cc(OC(F)F)ccc1CCNc1cc(-c2ccc(C(=O)O)c(SC)c2)ncn1 [Example 221, 4-{6-[2-(4-Difluoromethoxy-2-methoxy-phenyl)-ethylamino]-pyrimidin-4-yl}-2-methylsulfanyl-benzoic acid] |  |  | 268 nM | 92 nM
24 | COc1ccc(SC)cc1CCNc1cc(-c2ccc(C(=O)O)c(OC3CCC3)c2)ncn1 [Example 173, 2-Cyclobutoxy-4-{6-[2-(2-methoxy-5-methylsulfanyl-phenyl)-ethylamino]pyrimidin-4-yl}-benzoic acid] |  |  | 519 nM | 107 nM
25 | CCOc1cc(-c2cc(NCCc3c(F)cc(Br)cc3F)ncn2)ccc1NCC(=O)O [Example 182, (4-{6-[2-(4-Bromo-2,6-difluoro-phenyl)-ethylamino]-pyrimidin-4-yl}-2-ethoxy-phenylamino)-acetic acid] |  |  | 208 nM | 163 nM
26 | CCCc1cc(-c2cc(NCCc3cc(C)c(C)cc3OC)ncn2)ccc1C(=O)O [Example 189] |  |  | 338 nM | 295 nM
27 | CCOc1cc(-c2cc(NCCc3ccc(Br)cc3Cl)ncn2)sc1-c1noc(=O)[nH]1 [Example 124, 3-(5-{6-[2-(4-Bromo-2-chloro-phenyl)-ethylamino]-pyrimidin-4-yl}-3-ethoxy-thiophen-2-yl)-[1,2,4]oxadiazol-5(4H)-one] | 46 nM | 36 nM |  | 
28 | CCOc1cc(-c2cc(NCCc3c(OC)cc(Br)cc3OC)ncn2)ccc1C(=O)O [Example 52, 4-{6-[2-(4-Bromo-2,6-dimethoxy-phenyl)-ethylamino]-pyrimidin-4-yl}-2-ethoxy-benzoic acid] | 343 nM | 626 nM |  | 
29 | CCOc1cc(-c2cc(NCCc3c(F)cc(C(F)(F)F)cc3OC)ncn2)ccc1C(=O)O [Example 226, 2-Ethoxy-4-{6-[2-(2-fluoro-6-methoxy-4-trifluoromethyl-phenyl)-ethylamino]-pyrimidin-4-yl}-benzoic acid] |  |  | 273 nM | 907 nM
30 | COc1cc(-c2cc(NCCc3ccc(Br)cc3)ncn2)sc1C1(O)COC1 [Example 13, 3-(5-{6-[2-(4-Bromo-phenyl)-ethylamino]-pyrimidin-4-yl}-3-methoxy-thiophen-2-yl)-oxetan-3-ol] | 294 nM | 636 nM |  | 
31 | CCCc1cc(-c2cc(NCCc3c(F)cc(Br)cc3F)ncn2)ccc1C(=O)NCC [Example 305, 4-{6-[2-(4-Bromo-2,6-difluoro-phenyl)-ethylamino]-pyrimidin-4-yl}-N-ethyl-2-propyl-benzamide] |  |  | 628 nM | 203 nM
32 | CCOc1cc(-c2cc(NCCc3c(F)cc(Br)cc3F)ncn2)ccc1C(=O)NCCOC [Example 301, 4-{6-[2-(4-Bromo-2,6-difluoro-phenyl)-ethylamino]-pyrimidin-4-yl}-2-ethoxy-N-(2-methoxy-ethyl)-benzamide] |  |  | 640 nM | 118 nM
33 | CCCc1cc(-c2cc(NCCc3c(F)cc(Br)cc3F)ncn2)ccc1Cc1noc(=O)[nH]1 [Example 284, 3-(4-{6-[2-(4-Bromo-2,6-difluoro-phenyl)-ethylamino]-pyrimidin-4-yl}-2-propyl-benzyl)-[1,2,4]oxadiazol-5(4H)-one] |  |  | 199 nM | 295 nM
34 | CCc1cc(-c2cc(NCCc3c(F)cc(Br)cc3F)ncn2)cc(Cl)c1CC(=O)O [Example 253, (4-{6-[2-(4-Bromo-2,6-difluoro-phenyl)-ethylamino]-pyrimidin-4-yl}-2-chloro-6-ethyl-phenyl)-acetic acid] |  |  | 170 nM | 191 nM
